# pIC50: −log10 of the molar value.
# Target: VEGFR-2 kinase (Homo sapiens (Human), UniProt P35968)
# Assay: Test of small molecule compounds for inhibiting the activity of VEGFR-2 kinase
# Assay type: biochemical
# Details: class symbols A-D
# Description: Test of Small Molecule Compounds for Inhibiting the Activity of VEGFR-2 Kinase
# The test was carried out as follows:
# 2. 2.5 μl of the gradient-diluted compounds was taken with a transfer pipette to a 384-well plate,
# 3. Addition of enzyme: 5 μl of 2×VEGFR-2 kinase was taken with a transfer pipette to the corresponding reaction well of the 384-well plate, which was mixed and pre-reacted at room temperature for 30 min,
# 5. Negative control: 2.5 μl/well 4× substrate/ATP Mix and 7.5 μl 1× Kinase Assay Buffer were added to the wells of the 384-well plate,
# Positive control: 2.5 μl/well 4× substrate/ATP Mix, 2.5 μl/well 1× Kinase Assay Buffer containing 4% DMSO, and 5 μl/well 2×VEGFR-2 solution were added to the 384-well plate. The final concentration of DMSO in the reaction system is […],
# 6. The mixture was mixed well and then centrifuged and reacted at room temperature in dark for 60 min,
# 9. The 384-well plate was placed into the Envision plate reader and the signal was detected using the appropriate program,
# VEGFR-2 kinase, sequence (P35968 20-1356): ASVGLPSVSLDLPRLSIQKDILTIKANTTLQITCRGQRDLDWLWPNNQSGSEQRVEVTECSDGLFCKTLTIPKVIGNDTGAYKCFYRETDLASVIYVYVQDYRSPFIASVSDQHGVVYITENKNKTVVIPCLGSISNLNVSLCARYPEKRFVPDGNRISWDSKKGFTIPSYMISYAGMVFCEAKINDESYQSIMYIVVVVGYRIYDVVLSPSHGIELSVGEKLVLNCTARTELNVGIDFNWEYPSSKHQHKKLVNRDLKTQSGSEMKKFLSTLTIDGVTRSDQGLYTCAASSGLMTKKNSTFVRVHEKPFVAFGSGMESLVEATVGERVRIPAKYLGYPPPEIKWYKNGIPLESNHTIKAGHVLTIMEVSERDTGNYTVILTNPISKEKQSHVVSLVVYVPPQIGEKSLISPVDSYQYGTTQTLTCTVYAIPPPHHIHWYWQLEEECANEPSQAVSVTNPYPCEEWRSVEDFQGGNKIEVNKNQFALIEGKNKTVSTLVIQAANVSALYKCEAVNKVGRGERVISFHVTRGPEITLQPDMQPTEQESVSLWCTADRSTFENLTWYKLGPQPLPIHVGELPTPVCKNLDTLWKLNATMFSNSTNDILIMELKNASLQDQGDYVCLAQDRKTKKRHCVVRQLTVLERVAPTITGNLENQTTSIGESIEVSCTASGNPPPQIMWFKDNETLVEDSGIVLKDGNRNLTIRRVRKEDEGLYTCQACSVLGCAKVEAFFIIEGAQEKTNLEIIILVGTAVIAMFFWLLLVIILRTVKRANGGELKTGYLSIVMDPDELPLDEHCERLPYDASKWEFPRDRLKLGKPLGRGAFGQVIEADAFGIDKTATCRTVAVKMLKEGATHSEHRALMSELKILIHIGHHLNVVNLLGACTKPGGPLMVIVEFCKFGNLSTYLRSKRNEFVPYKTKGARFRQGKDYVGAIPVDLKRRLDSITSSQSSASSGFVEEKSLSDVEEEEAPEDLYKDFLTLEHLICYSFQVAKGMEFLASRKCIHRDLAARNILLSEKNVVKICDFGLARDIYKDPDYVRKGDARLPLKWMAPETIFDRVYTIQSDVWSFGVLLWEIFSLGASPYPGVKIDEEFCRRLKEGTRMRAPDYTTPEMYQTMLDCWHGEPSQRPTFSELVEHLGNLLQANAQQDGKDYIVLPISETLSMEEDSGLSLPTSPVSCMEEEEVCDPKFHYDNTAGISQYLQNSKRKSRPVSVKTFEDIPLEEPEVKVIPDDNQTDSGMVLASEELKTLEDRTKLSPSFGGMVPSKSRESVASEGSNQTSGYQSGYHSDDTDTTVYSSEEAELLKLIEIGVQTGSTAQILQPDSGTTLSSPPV
row,Structure (SMILES),pIC50
1,"COCCOc1cc2ncnc(Nc3ccc(NC(=O)NC(C)C)c(Cl)c3)c2c2c1OCCO2 [Example 40, 1-(2-chloro-4-((5-(2-methoxyethoxy)-2,3-dihydro-[1,4]dioxino[2,3-f]quinazolin-10-yl)amino)phenyl)-3-isopropylurea]",6.30 to 7.30
2,"COCCOc1cc2ncnc(Nc3ccc(NC(=O)Nc4ccc(C(F)(F)F)cc4F)c(Cl)c3)c2c2c1OCCO2 [Example 43, 1-(2-chloro-4-((5-(2-methoxyethoxy)-2,3-dihydro-[1,4]dioxino[2,3-f]quinazolin-10-yl)amino)phenyl)-3-(2-fluoro-4-(trifluoromethyl)phenyl)urea]",> 7.30
3,"COCCOc1cc2ncnc(Nc3ccc(NC(=O)Nc4ccc(Oc5ccccc5)cc4)c(Cl)c3)c2c2c1OCCO2 [Example 44, 1-(2-chloro-4-((5-(2-methoxyethoxy)-2,3-dihydro-[1,4]dioxino[2,3-f]quinazolin-10-yl)amino)phenyl)-3-(4-(phenoxy)phenyl)urea]",< 5.30
4,"COCCOc1cc2ncnc(Oc3ccc(NC(=O)NC4CCC4)c(Cl)c3)c2c2c1OCCO2 [Example 54, 1-(2-chloro-4-((5-(2-methoxyethoxy)-2,3-dihydro-[1,4]dioxino[2,3-f]quinazolin-10-yl)oxy)phenyl)-3-cyclobutylurea]",> 7.30
5,"COCCOc1cc2ncnc(Oc3ccc(NC(=O)NC4CCCC4)c(Cl)c3)c2c2c1OCCO2 [Example 55, 1-(2-chloro-4-((5-(2-methoxyethoxy)-2,3-dihydro-[1,4]dioxino[2,3-f]quinazolin-10-yl)oxy)phenyl)-3-cyclopentylurea]",> 7.30
6,"COCCOc1cc2ncnc(Oc3ccc(NC(=O)NC4CCCCC4)c(Cl)c3)c2c2c1OCCO2 [Example 56, 1-(2-chloro-4-((5-(2-methoxyethoxy)-2,3-dihydro-[1,4]dioxino[2,3-f]quinazolin-10-yl)oxy)phenyl)-3-cyclohexylurea]",> 7.30
7,"COCCOc1cc2ncnc(Oc3ccc(NC(=O)Nc4cc(C(F)(F)F)ccc4F)c(F)c3)c2c2c1OCCO2 [Example 57, 1-(2-fluoro-4-((5-(2-methoxyethoxy)-2,3-dihydro-[1,4]dioxino[2,3-f]quinazolin-10-yl)oxy)phenyl)-3-(2-fluoro-5-(trifluoromethyl)phenyl)urea]",> 7.30
8,"O=C(Nc1ccc(Nc2ncnc3cc(OCCCN4CCCC4)c4c(c23)OCCO4)cc1Cl)NC1CC1 [Example 61, 1-(2-chloro-4-((5-(3-(pyrrolidin-1-yl)propoxy)-2,3-dihydro-[1,4]dioxino[2,3-f]quinazolin-10-yl)amino)phenyl)-3-cyclopropylurea]",> 7.30
9,O=C(Nc1ccc(Nc2ncnc3cc(OCCCN4CCOCC4)c4c(c23)OCCO4)cc1Cl)NC1CC1 [Example 63],> 7.30
10,"O=C(Nc1ccc(Cl)c(C(F)(F)F)c1)Nc1ccc(Oc2ncnc3cc(OCCCN4CCOCC4)c4c(c23)OCCO4)cc1F [Example 69, 1-(4-chloro-3-(trifluoromethyl)phenyl)-3-(2-fluoro-4-((5-(3-morpholinopropoxy)-2,3-dihydro-[1,4]dioxino[2,3-f]quinazolin-10-yl)oxy)phenyl)urea]",> 7.30
11,"O=C(Nc1ccc(Oc2ncnc3cc(OCCN4CCOCC4)c4c(c23)OCCO4)cc1)Nc1ccc(Cl)c(C(F)(F)F)c1 [Example 72, 1-(4-chloro-3-(trifluoromethyl)phenyl)-3-(4-((5-(2-morpholinoethoxy)-2,3-dihydro-[1,4]dioxino[2,3-f]quinazolin-10-yl)oxy)phenyl)urea]",5.30 to 6.30
12,"O=C(Nc1ccc(Oc2ncnc3cc(OCCCN4CCOCC4)c4c(c23)OCCO4)cc1)Nc1ccc(F)c(C(F)(F)F)c1 [Example 75, 1-(4-fluoro-3-(trifluoromethyl)phenyl)-3-(4-((5-(3-morpholinopropoxy)-2,3-dihydro-[1,4]dioxino[2,3-f]quinazolin-10-yl)oxy)phenyl)urea]",> 7.30
13,"O=C(Nc1ccc(Oc2ncnc3cc(OCCN4CCCC4)c4c(c23)OCCO4)cc1)Nc1cc(C(F)(F)F)ccc1F [Example 76, 1-(2-fluoro-5-(trifluoromethyl)phenyl)-3-(4-((5-(2-(tetrahydropyrrol-1-yl)ethoxy)-2,3-dihydro-[1,4]dioxino[2,3-f]quinazolin-10-yl)oxy)phenyl)urea]",< 5.30

# Results, then the molecule that gave them:
row,pIC50,Structure (SMILES)
1,> 7.30,"COCCOc1cc2ncnc(Nc3ccc(NC(=O)Nc4ccnc(OC)c4)c(Cl)c3)c2c2c1OCCO2 [Example 41, 1-(2-chloro-4-((5-(2-methoxyethoxy)-2,3-dihydro-[1,4]dioxino[2,3-f]quinazolin-10-yl)amino)phenyl)-3-(2-methoxypyridin-4-yl)urea]"
2,> 7.30,"COCCOc1cc2ncnc(Oc3ccc(NC(=O)Nc4cccc(OC)c4)cc3Cl)c2c2c1OCCO2 [Example 51, 1-(3-chloro-4-((5-(2-methoxyethoxy)-2,3-dihydro-[1,4]dioxino[2,3-f]quinazolin-10-yl)oxy)phenyl)-3-(3-methoxyphenyl)urea]"
3,> 7.30,"COCCOc1cc2ncnc(Oc3ccc(NC(=O)Nc4ccnc(OC)c4)cc3)c2c2c1OCCO2 [Example 52, 1-(4-((5-(2-methoxyethoxy)-2,3-dihydro-[1,4]dioxino[2,3-f]quinazolin-10-yl)oxy)phenyl)-3-(2-methoxypyridin-4-yl)urea]"
4,> 7.30,"COCCOc1cc2ncnc(Oc3ccc(NC(=O)Nc4ccnc(OC)c4)cc3Cl)c2c2c1OCCO2 [Example 53, 1-(3-chloro-4-((5-(2-methoxyethoxy)-2,3-dihydro-[1,4]dioxino[2,3-f]quinazolin-10-yl)oxy)phenyl)-3-(2-methoxypyridin-4-yl)urea]"
5,> 7.30,"COCCOc1cc2ncnc(Oc3ccc(NC(=O)Nc4cc(C(F)(F)F)ccc4F)cc3F)c2c2c1OCCO2 [Example 58, 1-(3-fluoro-4-((5-(2-methoxyethoxy)-2,3-dihydro-[1,4]dioxino[2,3-f]quinazolin-10-yl)oxy)phenyl)-3-(2-fluoro-5-(trifluoromethyl)phenyl)urea]"
6,> 7.30,"COCCOc1cc2ncnc(Oc3ccc(NC(=O)Nc4ccc(Cl)c(C(F)(F)F)c4)cc3F)c2c2c1OCCO2 [Example 59, 1-(4-chloro-3-(trifluoromethyl)phenyl)-3-(3-fluoro-4-((5-(2-methoxyethoxy)-2,3-dihydro-[1,4]dioxino[2,3-f]quinazolin-10-yl)oxy)phenyl)urea]"
7,6.30 to 7.30,"COCCOc1cc2ncnc(Oc3ccc(NC(=O)Nc4ccc(Cl)c(C(F)(F)F)c4)cn3)c2c2c1OCCO2 [Example 60, 1-(4-chloro-3-(trifluoromethyl)phenyl)-3-(6-((5-(2-methoxyethoxy)-2,3-dihydro-[1,4]dioxino[2,3-f]quinazolin-10-yl)oxy)pyridin-3-yl)urea]"
8,> 7.30,"O=C(Nc1ccc(Oc2ncnc3cc(OCCCN4CCOCC4)c4c(c23)OCCO4)cc1)Nc1ccc(F)c(Cl)c1 [Example 74, 1-(3-chloro-4-fluorophenyl)-3-(4-((5-(3-morpholinopropoxy)-2,3-dihydro-[1,4]dioxino[2,3-f]quinazolin-10-yl)oxy)phenyl)urea]"
9,> 7.30,"CCOc1cc2ncnc(Oc3ccc(NC(=O)Nc4cc(C(F)(F)F)ccc4F)cc3)c2c2c1OCCO2 [Example 77, 1-(4-((5-ethoxy-2,3-dihydro-[1,4]dioxino[2,3-f]quinazolin-10-yl)oxy)phenyl)-3-(2-fluoro-5-(trifluoromethyl)phenyl)urea]"

# Source: patent US10980809B2, “Urea-substituted aromatic ring-linked dioxane-quinazoline and -linked dioxane-quinoline compounds, preparation method therefor and use thereof” (BEIJING SCITECH-MQ PHARMACEUTICALS LIMITED, priority 2017, dated 2021)
